Measurements reported in ChEMBL document CHEMBL1142367, “1H-Pyrazolo[3,4-g]hexahydro-isoquinolines as selective glucocorticoid receptor antagonists with high functional activity” (Bioorg Med Chem Lett, 2008).

Experiments:
Rattus norvegicus = assay: AUC in rat at 5 mg/kg, po; type: ADME, organism-based, Plasma; set-up: dose 5 mg/kg, route oral; details: in vivo
[1] = Ratio of drug level in brain to plasma in rat at 5 mg/kg, po; type: ADME, organism-based; set-up: dose 5 mg/kg, route oral; details: read-out: BPR
[2] = Cmax in rat at 5 mg/kg, po; type: ADME, organism-based; set-up: dose 5 mg/kg, route oral; details: in vivo
Canis familiaris = assay: AUC in dog at […], po; type: ADME, organism-based, Canis lupus familiaris, Plasma; set-up: dose 2.5 mg/kg, route oral; details: in vivo
[3] = Oral bioavailability in rat at 5 mg/kg; type: ADME, organism-based; details: in vivo
Glucocorticoid receptor [4] = molecular target: T1, Glucocorticoid receptor (Homo sapiens, UniProt P04150); assay: Antagonist activity at GR in SW1353/MMTV5 cells assessed as inhibition of dexamethasone-induced luciferase expression; type: functional, cell-based
T1 sequence (P04150 whole entry): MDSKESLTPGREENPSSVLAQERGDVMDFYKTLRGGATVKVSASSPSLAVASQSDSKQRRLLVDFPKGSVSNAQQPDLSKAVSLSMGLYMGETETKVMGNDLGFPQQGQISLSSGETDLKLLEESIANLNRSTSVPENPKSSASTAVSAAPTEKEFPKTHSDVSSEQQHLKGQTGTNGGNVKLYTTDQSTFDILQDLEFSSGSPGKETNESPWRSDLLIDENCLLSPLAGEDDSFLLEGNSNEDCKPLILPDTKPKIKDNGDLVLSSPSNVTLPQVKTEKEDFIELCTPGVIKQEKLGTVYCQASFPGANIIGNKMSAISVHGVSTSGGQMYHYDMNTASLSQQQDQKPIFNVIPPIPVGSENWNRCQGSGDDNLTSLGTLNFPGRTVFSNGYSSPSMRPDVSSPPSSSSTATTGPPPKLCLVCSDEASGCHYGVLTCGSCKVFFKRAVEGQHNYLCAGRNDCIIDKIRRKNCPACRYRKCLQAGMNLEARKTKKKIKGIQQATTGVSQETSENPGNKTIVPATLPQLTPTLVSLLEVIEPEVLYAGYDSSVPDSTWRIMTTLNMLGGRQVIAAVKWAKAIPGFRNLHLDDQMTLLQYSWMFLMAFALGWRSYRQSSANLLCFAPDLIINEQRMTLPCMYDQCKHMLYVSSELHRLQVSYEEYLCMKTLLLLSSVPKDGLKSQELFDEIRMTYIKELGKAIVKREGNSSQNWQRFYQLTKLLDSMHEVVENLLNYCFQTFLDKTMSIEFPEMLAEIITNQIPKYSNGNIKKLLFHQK

[5] = Cmax in dog at […], po; type: ADME, organism-based, Canis lupus familiaris; set-up: dose 2.5 mg/kg, route oral; details: in vivo
[6] = Oral bioavailability in dog at […]; type: ADME, organism-based, Canis lupus familiaris; details: in vivo
[7] = Half life in dog at […], po; type: ADME, organism-based, Canis lupus familiaris; set-up: dose 2.5 mg/kg, route oral; details: in vivo
Glucocorticoid receptor [8] = molecular target: T1, Glucocorticoid receptor; assay: Displacement of [3H]dexamethasone from human recombinant GR
[9] = Metabolic stability in human liver microsomes after 30 mins; type: ADME, Microsome; details: read-out: Stability
[10] = Half life in rat at 5 mg/kg, po; type: ADME, organism-based; set-up: dose 5 mg/kg, route oral; details: in vivo
[11] = Oral bioavailability in rat; type: ADME, organism-based; details: in vivo

Ki (Glucocorticoid receptor [4]) [nM]	Ki (Glucocorticoid receptor [8]) [nM]	bioavailability [11] [%]	SMILES	also measured
33	1.4	–	COC[C@]12Cc3cnn(-c4ccc(F)cc4)c3C=C1CCN(S(=O)(=O)c1ccc(F)cc1)C2	AUC (Rattus norvegicus): 0.621 µg/h/mL; Kp [1]: 1.1; Cmax [2]: 106 ng/mL; AUC (Canis familiaris): 1.676 µg/h/mL; bioavailability [3]: 22%; Cmax [5]: 381 ng/mL; bioavailability [6]: 54%; half-life [7]: 4.2 h; remaining at 0.5 h [9]: 57%; half-life [10]: 2.1 h
293	9	–	C[C@]12Cc3cnn(-c4ccc(F)cc4)c3C=C1CCN(S(=O)(=O)c1ccc(F)cc1)C2	–
6.9	1.2	0	CN(C)C[C@]12Cc3cnn(-c4ccc(F)cc4)c3C=C1CCN(S(=O)(=O)c1ccc(C(C)(C)C)cc1)C2	–
17	2.1	5	CC(C)NC[C@]12Cc3cnn(-c4ccc(F)cc4)c3C=C1CCN(S(=O)(=O)c1ccc(C(C)(C)C)cc1)C2	–
3.1	1	0	COCCNC[C@]12Cc3cnn(-c4ccc(F)cc4)c3C=C1CCN(S(=O)(=O)c1ccc(C(C)(C)C)cc1)C2	–
0.6	0.7	0	COCCOC[C@]12Cc3cnn(-c4ccc(F)cc4)c3C=C1CCN(S(=O)(=O)c1ccc(C(C)(C)C)cc1)C2	–
–	–	8	COCCOC[C@]12Cc3cnn(-c4ccc(F)cc4)c3C=C1CCN(S(=O)(=O)c1ccc(C)cc1)C2	–
7.1	0.9	–	CC(C)(C)c1ccc(S(=O)(=O)N2CCC3=Cc4c(cnn4-c4ccc(F)cc4)C[C@]3(CN3CCOCC3)C2)cc1	AUC (Rattus norvegicus): 0.302 µg/h/mL; Kp [1]: 0.1; Cmax [2]: 75 ng/mL; bioavailability [3]: 10%; half-life [10]: 2 h
28	0.8	–	COC[C@]12Cc3cnn(-c4ccc(F)cc4)c3C=C1CCN(S(=O)(=O)c1ccc(C(F)(F)F)cc1)C2	AUC (Rattus norvegicus): 0.966 µg/h/mL; Kp [1]: 0.83; Cmax [2]: 163 ng/mL; AUC (Canis familiaris): 3.638 µg/h/mL; bioavailability [3]: 16%; Cmax [5]: 647 ng/mL; bioavailability [6]: 58%; half-life [7]: 6.7 h; half-life [10]: 3.4 h
53	1.2	–	CC(C)(C)c1ccc(S(=O)(=O)N2CCC3=Cc4c(cnn4-c4ccc(F)cc4)C[C@]3(C)C2)cc1	AUC (Rattus norvegicus): 1.009 µg/h/mL; Kp [1]: 0.07; Cmax [2]: 199 ng/mL; AUC (Canis familiaris): 1.684 µg/h/mL; bioavailability [3]: 13%; Cmax [5]: 524 ng/mL; bioavailability [6]: 26%; half-life [7]: 4.2 h; half-life [10]: 2.7 h
96	2.3	–	Cc1ccc(S(=O)(=O)N2CCC3=Cc4c(cnn4-c4ccc(F)cc4)C[C@]3(C)C2)cc1	–
7.7	0.8	–	COC[C@]12Cc3cnn(-c4ccc(F)cc4)c3C=C1CCN(S(=O)(=O)c1ccc(C(C)(C)C)cc1)C2	AUC (Rattus norvegicus): 0.43 µg/h/mL; Kp [1]: 0.1; Cmax [2]: 94 ng/mL; bioavailability [3]: 11%; half-life [10]: 2.9 h
20	1	–	COC[C@]12Cc3cnn(-c4ccc(F)cc4)c3C=C1CCN(S(=O)(=O)c1ccccc1)C2	AUC (Rattus norvegicus): 0.112 µg/h/mL; Kp [1]: 0.75; Cmax [2]: 23 ng/mL; AUC (Canis familiaris): 0.894 µg/h/mL; bioavailability [3]: 3%; Cmax [5]: 258 ng/mL; bioavailability [6]: 20%; half-life [7]: 5.9 h; half-life [10]: 3.6 h
11	1.4	4	CC(C)(C)c1ccc(S(=O)(=O)N2CCC3=Cc4c(cnn4-c4ccc(F)cc4)C[C@]3(CN3CCC3)C2)cc1	–
16	2.4	0	CCNC[C@]12Cc3cnn(-c4ccc(F)cc4)c3C=C1CCN(S(=O)(=O)c1ccc(C(C)(C)C)cc1)C2	–
5.1	0.8	2	CC(C)(C)c1ccc(S(=O)(=O)N2CCC3=Cc4c(cnn4-c4ccc(F)cc4)C[C@]3(COCCC#N)C2)cc1	–
5.2	0.6	–	COCCOC[C@]12Cc3cnn(-c4ccc(F)cc4)c3C=C1CCN(S(=O)(=O)c1ccc(F)cc1)C2	remaining at 0.5 h [9]: 7%
> 1000	22	–	Fc1ccc(CC23Cc4cnn(-c5ccc(F)cc5)c4C=C2CCN(Cc2cccnc2)C3)cc1 (racemic)	–
14	1.3	–	CC(C)(C)c1ccc(S(=O)(=O)N2CCC3=Cc4c(cnn4-c4ccc(F)cc4)CC3(Cc3ccc(F)cc3)C2)cc1 (racemic)	–
36	2.2	–	O=S(=O)(c1ccccc1)N1CCC2=Cc3c(cnn3-c3ccc(F)cc3)CC2(Cc2ccc(F)cc2)C1 (racemic)	–
> 1000	26	–	O=S(=O)(N1CCOCC1)N1CCC2=Cc3c(cnn3-c3ccc(F)cc3)CC2(Cc2ccc(F)cc2)C1 (racemic)	–
26	1.4	–	O=S(=O)(c1ccc(F)cc1)N1CCC2=Cc3c(cnn3-c3ccc(F)cc3)CC2(Cc2ccc(F)cc2)C1 (racemic)	–
11	1.3	–	O=S(=O)(c1ccc(N2CCOCC2)cc1)N1CCC2=Cc3c(cnn3-c3ccc(F)cc3)CC2(Cc2ccc(F)cc2)C1 (racemic)	–
> 1000	13	–	CS(=O)(=O)N1CCC2=Cc3c(cnn3-c3ccc(F)cc3)CC2(Cc2ccc(F)cc2)C1 (racemic)	–
17	1.5	–	Cc1ccc(S(=O)(=O)N2CCC3=Cc4c(cnn4-c4ccc(F)cc4)CC3(Cc3ccc(F)cc3)C2)cc1 (racemic)	–
6.8	0.9	–	CCOC[C@]12Cc3cnn(-c4ccc(F)cc4)c3C=C1CCN(S(=O)(=O)c1ccc(C(F)(F)F)cc1)C2 [CORT 108297]	–

SMILES	Ki (Glucocorticoid receptor [4]) [nM]	Ki (Glucocorticoid receptor [8]) [nM]	bioavailability [11] [%]	also measured
CC(C)(C)c1ccc(S(=O)(=O)N2CCC3=Cc4c(cnn4-c4ccc(F)cc4)C[C@]3(CN3CCCC3)C2)cc1	3.4	1.1	2	–
